# Data reported in PMC5474940 (Biochemistry, 2017).
# Test system: AcOSα-PaFSα
# Format: biochemical, Aspergillus clavatus
# Settings: read-out: AcOSα-PaFSα; labelled compound; 25 mM HEPES pH 8.0, 200 mM NaCl, 5 mM MgCl2, 30 °C; cyclase domain
compound,measurement,value
CC(C)=CCC/C(C)=C/CC/C(C)=C/CC/C(C)=C/COP(=O)(O)OP(=O)(O)O [GGPP],Km,0.038 ± 0.01 µM
